This note sets out measurements from patent US6706757B2, “Chroman derivatives as 5-hydroxytryptamine-6 ligands” (Wyeth, priority 2001, dated 2004).

Structures can show the parent of a compound that is named as a salt.

The molecule `C[C@@H](NCC1CCc2ccc(N(C)S(=O)(=O)c3ccccc3Br)cc2O1)c1ccccc1` (stereo partly drawn) (as salt: HCl) [Example 51, 2-bromo-N-methyl-N-[2-({[(1R)-1-phenylethyl]amino}methyl)-3,4-dihydro-2H-chromen-7-yl]benzenesulfonamide] displayed a melting point of 199 to 201 °C.
`C[C@@H](NCC1CCc2ccc(N(C)S(=O)(=O)c3ccc(F)cc3)cc2O1)c1ccccc1` (stereo partly drawn) (as salt: HCl) [Example 52, 4-fluoro-N-methyl-N-[2-({[(1R)-1-phenylethyl]amino}methyl)-3,4-dihydro-2H-chromen-7-yl]benzenesulfonamide] showed a melting point of 208 to 210 °C.
Turning to `C[C@@H](NCC1CCc2ccc(N(C)S(=O)(=O)c3cccc4ccccc34)cc2O1)c1ccccc1` (stereo partly drawn) (as salt: HCl) [Example 55, N-methyl-N-[2-({[(1R)-1-phenylethyl]amino}methyl)-3,4-dihydro-2H-chromen-7-yl]naphthalene-1-sulfonamide], the melting point was 245 to 246 °C.
Consider `C[C@@H](NCC1CCc2ccc(N(C)S(=O)(=O)c3ccc(N)cc3)cc2O1)c1ccccc1` (stereo partly drawn) (as salt: HCl) [Example 56, 4-amino-N-methyl-N-[2-({[(1R)-1-phenylethyl]amino}methyl)-3,4-dihydro-2H-chromen-7-yl]benzenesulfonamide], for which the melting point is 200 °C (dec.).
Regarding `COc1ccc(S(=O)(=O)N(C)c2ccc3c(c2)OC(CN[C@H](C)c2ccccc2)CC3)cc1OC` (stereo partly drawn) (as salt: HCl) [Example 54, 3,4-dimethoxy-N-methyl-N-[2-({[(1R)-1-phenylethyl]amino}methyl)-3,4-dihydro-2H-chromen-7-yl]benzenesulfonamide], the melting point fell in the range of 229 to 230 °C.
On to `C[C@@H](NCC1CCc2ccc(N(C)S(=O)(=O)c3ccc(Cl)cc3)cc2O1)c1ccccc1` (stereo partly drawn) (as salt: HCl) [Example 53, 4-chloro-N-methyl-N-[2-({[(1R)-1-phenylethyl]amino}methyl)-3,4-dihydro-2H-chromen-7-yl]benzenesulfonamide], for which the melting point fell in the range of 198 to 201 °C.
